Drawing on patent US6410554B1, “Combination therapy for the treatment of benign prostatic hyperplasia” (Merck & Co., Inc., priority 1998, dated 2002), this text covers melting point for one molecule.

Each structure is given as a SMILES string. Counter-ions that a name gives are not always drawn.

Broadly, the melting point is the temperature of the solid-liquid transition.

`C[C@@H]1OC(=O)N(C(=O)NCCCN2CCC(c3ccc(F)cc3)CC2)[C@H]1c1ccc(F)c(F)c1` (as salt: hydrochloride) registered a melting point of 80 to 83 °C.
